In patent US20260176267A1, “PREPARATION OF IMIDAZOPYRIDINE AND IMIDAZOPYRIDAZINE DERIVATIVES AS NOVEL DIACYLGLYCERIDE O-ACYLTRANSFERASE 2 INHIBITORS” (Merck Sharp & Dohme LLC, priority 2022, published 2026):

molecular target: T1, human DGAT2 (hDGAT2) (Homo sapiens, UniProt Q96PD7); assay: DGAT2 Enzymatic Activity Assay; type: biochemical; conditions: membrane prep of Sf-9 cells expressing hDGAT2; 13C18-triolein product by LC/MS/MS; 25 μM diolein, 5 μM 13C oleoyl-CoA, rt
T1 construct: made in house; host or cells: Sf-9 insect cells (baculovirus), membrane fraction
T1 sequence (Q96PD7 1-388): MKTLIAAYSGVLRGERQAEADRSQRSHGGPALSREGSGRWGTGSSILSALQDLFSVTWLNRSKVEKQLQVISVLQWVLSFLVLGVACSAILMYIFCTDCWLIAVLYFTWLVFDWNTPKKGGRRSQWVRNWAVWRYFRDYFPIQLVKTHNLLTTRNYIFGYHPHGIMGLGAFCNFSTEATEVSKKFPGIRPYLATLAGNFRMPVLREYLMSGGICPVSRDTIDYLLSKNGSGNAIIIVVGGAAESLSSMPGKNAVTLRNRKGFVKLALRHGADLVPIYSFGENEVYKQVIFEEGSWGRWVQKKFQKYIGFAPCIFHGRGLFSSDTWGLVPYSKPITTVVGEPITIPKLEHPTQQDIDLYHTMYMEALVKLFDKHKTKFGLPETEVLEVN
Description: Sf-9 insect cells were maintained in Grace's insect cell culture medium with 10% heated-inactivated fetal bovine serum, 1% Pluronic F-68 and 0.14 μg/ml Kanamycine sulfate at 27° C. in a shaker incubator. After infection with untagged baculovirus expressing human DGAT2 (hDGAT2) at multiplicity of infection (MOI) 3 for 48 hours, cells were harvested. Cell pellets were suspended in buffer containing 10 mM Tris-HCl pH 7.5, 1 mM EDTA, 250 mM sucrose and Complete Protease Inhibitor Cocktail (Sigma Aldrich), and sonicated on ice. Cell debris were removed by centrifugation at 2000×g for 15 minutes. Membrane fractions were isolated by ultracentrifugation (100,000×g), resuspended in the same buffer, and frozen (−80° C.) for later use. The protein concentration was determined with the Pierce™ BCA Protein Assay Kit (Thermo Fisher Scientific).
LC/MS/MS analyses were performed using Thermal Fisher's LX4-TSQ Vantage system. This system consists of an Agilent binary high-performance liquid chromatography (HPLC) pump and a TSQ Vantage triple quadrupole MS/MS instrument. For each sample, 2 μL samples from the top organic layer of in-plate liquid-liquid extraction were injected onto a Thermo Betabasic C4 column (2.1 mm×20 mm, 5 μm particle size). The samples were then eluted using the following conditions; mobile phase: Isopropanol:acetonitrile/10 mM ammonium formate=50/35/15 (v/v/v), flow rate: 0.8 mL/min, temperature: 25° C. Data was acquired in positive mode using a heated electrospray ionization (HESI) interface. The operational parameters for the TSQ Vantage MS/MS instrument were a spray voltage of 3000 V, capillary temperature of 280° C., vaporizer temperature 400° C., sheath gas 45 arbitrary unit. Aux gas 10 arbitrary units. […] The peak area was integrated by Xcalibur Quan software. The ratio between the ^13C18 triolein generated in the reaction and spiked in internal standard ^13C21-triolein was used to generate percentage inhibition and IC50 values. Compound percentage inhibition was calculated by the following formula: Inhibition %=1−[(compound response−low control)/(high control−low control)]×100%.
DGAT2 activity was determined by measuring the amount of enzymatic product ^13C18-triolein (^13C-1,2,3-Tri(cis-9-octadecenoyl)glycerol) using the membrane prep mentioned above. The assay was carried out in ABgene 384-well assay plates in a final volume of 25 μL at rt.

SMILES | IC50 [nM]
CC(C)c1cc2nc(C(=O)NC3(C)CCS(=O)(=O)CC3)cn2cc1Oc1ncc(Cl)cc1OCC(F)(F)F [Example 43, 6-[[5-chloro-3-(2,2,2-trifluoroethoxy)-2-pyridyl]oxy]-7-isopropyl-N-(4-methyl-1,1-dioxo-thian-4-yl)imidazo[1,2-a]pyridine-2-carboxamide] | 122
Cc1c(Oc2nccnc2OCC(F)(F)F)cc(F)c2nc(C(=O)NC3(C)CCS(=O)(=O)CC3)cn12 [Example 44, 8-fluoro-5-methyl-N-(4-methyl-1,1-dioxo-thian-4-yl)-6-[3-(2,2,2-trifluoroethoxy)pyrazin-2-yl]oxy-imidazo[1,2-a]pyridine-2-carboxamide] | 68
CCOc1cccnc1Oc1ccc2nc(C(=O)Nc3ccccc3)cn2c1 [Example 45, 6-[(3-ethoxy-2-pyridyl)oxy]-N-phenyl-imidazo[1,2-a]pyridine-2-carboxamide;2,2,2-trifluoroacetate] | 168
CC1(CNC(=O)c2cn3cc(Oc4ncc(Cl)cc4OCC(F)(F)F)ccc3n2)CCS(=O)(=O)CC1 [Example 50, 6-[[5-chloro-3-(2,2,2-trifluoroethoxy)-2-pyridyl]oxy]-N-[(4-methyl-1,1-dioxo-thian-4-yl)methyl]imidazo[1,2-a]pyridine-2-carboxamide] | 174
O=C(NC1CCOc2c(F)cc(F)cc21)c1cn2cc(Oc3ncccc3OCC(F)(F)F)ccc2n1 (centres unmarked) [Example 51, N-(6,8-difluorochroman-4-yl)-6-[[3-(2,2,2-trifluoroethoxy)-2-pyridyl]oxy]imidazo[1,2-a]pyridine-2-carboxamide] | 123
CCOc1cccnc1Oc1ccc2nc(C(=O)N[C@H]3CCOC3)cn2c1 [Example 52, 6-[(3-ethoxy-2-pyridyl)oxy]-N-[(3S)-tetrahydrofuran-3-yl]imidazo[1,2-a]pyridine-2-carboxamide] | 814
CCOc1cccnc1Oc1ccc2nc(C(=O)NCc3ccccc3)cn2c1 [Example 53, N-benzyl-6-[(3-ethoxy-2-pyridyl)oxy]imidazo[1,2-a]pyridine-2-carboxamide] | 346
CCOc1cccnc1Oc1ccc2nc(C(=O)Nc3cccnc3)cn2c1 [Example 54, 6-[(3-ethoxy-2-pyridyl)oxy]-N-(3-pyridyl)imidazo[1,2-a]pyridine-2-carboxamide] | 850
CC(C)c1c(Oc2ncc(Cl)cc2OCC(F)(F)F)ccc2nc(C(=O)NC3(C)CS(=O)(=O)C3)cn12 [Example 55, 6-[[5-chloro-3-(2,2,2-trifluoroethoxy)-2-pyridyl]oxy]-5-isopropyl-N-(3-methyl-1,1-dioxo-thietan-3-yl)imidazo[1,2-a]pyridine-2-carboxamide] | 89
CC1(NC(=O)c2cn3cc(Oc4ncccc4OCC(F)(F)F)cc(C(F)(F)F)c3n2)CCS(=O)(=O)CC1 [Example 56, N-(4-methyl-1,1-dioxo-thian-4-yl)-6-[[3-(2,2,2-trifluoroethoxy)-2-pyridyl]oxy]-8-(trifluoromethyl)imidazo[1,2-a]pyridine-2-carboxamide] | > 9990
CCOc1cccnc1Oc1ccc2nc(C(=O)Nc3ccc(C)nn3)cn2c1 [Example 57, 6-[(3-ethoxy-2-pyridyl)oxy]-N-(6-methylpyridazin-3-yl)imidazo[1,2-a]pyridine-2-carboxamide] | 1110
CCC(F)(F)c1cccnc1Oc1ccc2nc(C(=O)NC3(C)CCS(=O)(=O)CC3)cn2c1 [Example 58, 6-[[3-(1,1-difluoropropyl)-2-pyridyl]oxy]-N-(4-methyl-1,1-dioxo-thian-4-yl)imidazo[1,2-a]pyridine-2-carboxamide] | 262
CC1(NC(=O)c2cn3cc(Oc4ncccc4O)ccc3n2)CCS(=O)(=O)CC1 [Example 60, 6-[(3-hydroxy-2-pyridyl)oxy]-N-(4-methyl-1,1-dioxo-thian-4-yl)imidazo[1,2-a]pyridine-2-carboxamide] | > 9990
Cc1c(C(=O)NC2(C(C)C)CCS(=O)(=O)CC2)nc2ccc(Oc3ncc(F)cc3OCC(F)F)cn12 [Example 65, 6-[[3-(2,2-difluoroethoxy)-5-fluoro-2-pyridyl]oxy]-N-(4-isopropyl-1,1-dioxo-thian-4-yl)-3-methyl-imidazo[1,2-a]pyridine-2-carboxamide] | 434
CCC1(NC(=O)c2nc3ccc(Oc4ncc(F)cc4OCC(F)F)cn3c2C)CS(=O)(=O)C1 [Example 70, 6-[[3-(2,2-difluoroethoxy)-5-fluoro-2-pyridyl]oxy]-N-(3-ethyl-1,1-dioxo-thietan-3-yl)-3-methyl-imidazo[1,2-a]pyridine-2-carboxamide] | 74.3

These reach a lower IC50. Values come first.

IC50 [nM] | SMILES
42 | Cc1c(Oc2nccnc2OCC(F)F)ccc2nc(C(=O)NC3(C)CCS(=O)(=O)CC3)cn12 [Example 46, 6-[3-(2,2-difluoroethoxy)pyrazin-2-yl]oxy-5-methyl-N-(4-methyl-1,1-dioxo-thian-4-yl)imidazo[1,2-a]pyridine-2-carboxamide]
8.7 | CC(F)(F)COc1cc(F)cnc1Oc1cn2cc(C(=O)NC3(C)CCS(=O)(=O)CC3)nc2cc1F [Example 47, 6-((3-(2,2-difluoropropoxy)-5-fluoropyridin-2-yl)oxy)-7-fluoro-N-(4-methyl-1,1-dioxidotetrahydro-2H-thiopyran-4-yl)imidazo[1,2-a]pyridine-2-carboxamide]
59 | CC(C)c1cc2nc(C(=O)NC3(C)CCS(=O)(=O)CC3)cn2cc1Oc1ncccc1OCC(F)(F)F [Example 48, 7-isopropyl-N-(4-methyl-1,1-dioxo-thian-4-yl)-6-[[3-(2,2,2-trifluoroethoxy)-2-pyridyl]oxy]imidazo[1,2-a]pyridine-2-carboxamide]
12 | CC(C)c1c(Oc2ncc(Cl)cc2OCC(F)(F)F)ccc2nc(C(=O)NC3(C)CCS(=O)(=O)CC3)cn12 [Example 49, 6-[[5-chloro-3-(2,2,2-trifluoroethoxy)-2-pyridyl]oxy]-5-isopropyl-N-(4-methyl-1,1-dioxo-thian-4-yl)imidazo[1,2-a]pyridine-2-carboxamide]
9 | CCc1cc2nc(C(=O)NC3(C)CCS(=O)(=O)CC3)cn2cc1Oc1ncc(Cl)cc1OCC(F)(F)F [Example 59, 6-((5-Chloro-3-(2,2,2-trifluoroethoxy)pyridin-2-yl)oxy)-7-ethyl-N-(4-methyl-1,1-dioxidotetrahydro-2H-thiopyran-4-yl)imidazo[1,2-a]pyridine-2-carboxamide]
3 | Cc1c(C(=O)NC2(C)CCS(=O)(=O)CC2)nc2ccc(Oc3ncc(Cl)cc3OCC(F)(F)F)cn12 [Example 61, 6-[[5-chloro-3-(2,2,2-trifluoroethoxy)-2-pyridyl]oxy]-3-methyl-N-(4-methyl-1,1-dioxo-thian-4-yl)imidazo[1,2-a]pyridine-2-carboxamide]
1.5 | Cc1c(C(=O)NC2(CC(F)(F)F)CCS(=O)(=O)CC2)nc2ccc(Oc3ncc(F)cc3OCC(F)F)cn12 [Example 62, 6-[[3-(2,2-difluoroethoxy)-5-fluoro-2-pyridyl]oxy]-N-[1,1-dioxo-4-(2,2,2-trifluoroethyl)thian-4-yl]-3-methyl-imidazo[1,2-a]pyridine-2-carboxamide]
1.7 | Cc1c(C(=O)NC2(C)CCS(=O)(=O)C(C)(C)C2)nc2ccc(Oc3ncc(F)cc3OCC(F)F)cn12 (centres unmarked) [Example 64]
0.8 | CCC1(NC(=O)c2nc3ccc(Oc4ncc(F)cc4OCC(F)F)cn3c2C)CCS(=O)(=O)CC1 [Example 66, 6-[[3-(2,2-difluoroethoxy)-5-fluoro-2-pyridyl]oxy]-N-(4-ethyl-1,1-dioxo-thian-4-yl)-3-methyl-imidazo[1,2-a]pyridine-2-carboxamide]
0.8 | Cc1c(C(=O)NC2(C)CCS(=O)(=O)CC2)nc2ccc(Oc3ncc(F)cc3OCC3(F)CC3)cn12 [Example 68]
2 | CCOc1cc(Cl)cnc1Oc1ccc2nc(C(=O)NC3(C)CS(=O)(=O)C3)c(C)n2c1 [Example 69, 6-[(5-chloro-3-ethoxy-2-pyridyl)oxy]-3-methyl-N-(3-methyl-1,1-dioxo-thietan-3-yl)imidazo[1,2-a]pyridine-2-carboxamide]
